{"source": "patent US10457639B2", "about": "“Fluorescent regulators of RASSF1A expression and human cancer cell proliferation” (GEORGETOWN UNIVERSITY, priority 2008, dated 2019)", "key": {"PC3 cells": {"tested_on": "PC3 cells", "test": "Cell growth assay, trypan blue dye exclusion count", "assay_type": "cell-based", "protocol": "Cell Line and Cell Growth Assay. Human prostate cancer cell line PC-3 was procured from the American Type Cell Culture Collection (Manassas, Va.). Cells were grown in IMEM without phenol red (Invitrogen, Carlsbad, Calif.) with 10% fetal bovine serum, 2 mM glutamine, 100 U/mL penicillin G sodium, and 100 μg/mL streptomycin sulfate (Sigma, St. Louis, Mo.) in the presence of 5% CO2 at 37° C. For the cell growth experiment, PC-3 cells were seeded in 6-well plates in triplicate with an initial density of 2×10^3 cells per well. Twenty-four hours after seeding, the attached cells were treated with vehicle (DMSO) or 1, 5, 15, 30 and 60 μM compound. After another twenty-four hours, the cells were washed with 1×PBS, trypsinized and re-suspended in complete growth medium. Trypan blue (0.4%) was added to the cell suspension and both live and dead cells were counted using a hemocytometer.\nCompounds 6-10 were screened for growth inhibition in PC-3 human prostate cancer cells using previously reported methods (Table 1; Sinha et al. The Prostate. 2006, 66, 1257-1265). […] This was unexpected, since the methyl moiety of mahanine is in the 3-position. Compound 9, with its GI50 value near that of the compound 6 series (compounds 6, 6a, 8) and a deprotected hydroxyl group in the 2-position, implies that whatever hindrance is imposed by a methyl in the 3-position can be partially overcome if steric bulk at the 2-position is reduced. Indeed, looking at the structure of mahanine, the restraint of the ether cycle may provide enough reduction of apparent bulk at the 2-position to moderate its methyl in the 3-position. Additionally, the ether ring system puts the equivalent of a methyl group in the 1-position, which could also be aiding in the low μM activity of mahanine, if the relatively lower values for the compound 6 series are any indication. Moreover, analyzing the structure of compound 10 based on the same criteria, the double-bonded carbon of the ether cycle in the 3-position along with bulk off the 2-position might explain its lesser growth inhibition when compared to mahanine, while the methyl in the 1-position still gives it better activity than compounds 7 and 7a."}, "PC-3 cells": {"tested_on": "PC-3 cells", "test": "BrdU labeling, DNA synthesis (Cell Proliferation ELISA BrdU)", "assay_type": "cell-based, human", "settings": "5 μM compound, 24 hours", "protocol": "PC-3 cells were plated in 96-well plates and treated with 5 μM of compound. After 24 hours, the cells were assayed for BrdU labeling using the Cell Proliferation ELISA BrdU kit from Roche; background BrdU incorporation levels (absent anti-BrdU-peroxidase solution) were subtracted and values were normalized to those of control untreated cells.\nBrdU Labeling. For the BrdU experiment, PC-3 cells were seeded in 96-well plates at a density of 2×10^3 cells/well, treated with 5 μM of compound for 24 hr and assayed BrdU using the Cell Proliferation ELISA BrdU (chemiluminescence) (Roche Diagnostics, IN) kit according to the manufacturer's protocol. Briefly, 10 μL of 100 μM BrdU labeling solution was added to the cultured cells and were incubated for 1 hr at 37° C., the labeling solution was removed and the FixDenat solution provided with the kit was added for 30 min and incubated at room temperature. Cells were then incubated with anti-BrdU conjugated to peroxidase (1:1500) for 60 min. Finally, the plates were washed and 100 μL of substrate solution was added to each well, and the light emission was measured using a microplate luminometer (Harta Instruments, Inc., Gaithersburg, Md.).\nTo assess the levels of DNA synthesis within cells treated with mahanine compared to those treated with compounds 6-10, cultured cells were treated according to standard procedure with 5-bromo-2-deoxy-uridine (BrdU) after 24 hours of treatment (FIG. 2)."}, "DNMT3a": {"target": "T1, DNMT3a (Homo sapiens, UniProt Q9Y6K1)", "T1 construct": "treated with propidium iodide (nuclear localization) and DNMT3a or DNMT3b; endogenous in cells; host or cells: PC-3 human prostate cancer cells", "T1 sequence (Q9Y6K1 whole entry, looked up)": "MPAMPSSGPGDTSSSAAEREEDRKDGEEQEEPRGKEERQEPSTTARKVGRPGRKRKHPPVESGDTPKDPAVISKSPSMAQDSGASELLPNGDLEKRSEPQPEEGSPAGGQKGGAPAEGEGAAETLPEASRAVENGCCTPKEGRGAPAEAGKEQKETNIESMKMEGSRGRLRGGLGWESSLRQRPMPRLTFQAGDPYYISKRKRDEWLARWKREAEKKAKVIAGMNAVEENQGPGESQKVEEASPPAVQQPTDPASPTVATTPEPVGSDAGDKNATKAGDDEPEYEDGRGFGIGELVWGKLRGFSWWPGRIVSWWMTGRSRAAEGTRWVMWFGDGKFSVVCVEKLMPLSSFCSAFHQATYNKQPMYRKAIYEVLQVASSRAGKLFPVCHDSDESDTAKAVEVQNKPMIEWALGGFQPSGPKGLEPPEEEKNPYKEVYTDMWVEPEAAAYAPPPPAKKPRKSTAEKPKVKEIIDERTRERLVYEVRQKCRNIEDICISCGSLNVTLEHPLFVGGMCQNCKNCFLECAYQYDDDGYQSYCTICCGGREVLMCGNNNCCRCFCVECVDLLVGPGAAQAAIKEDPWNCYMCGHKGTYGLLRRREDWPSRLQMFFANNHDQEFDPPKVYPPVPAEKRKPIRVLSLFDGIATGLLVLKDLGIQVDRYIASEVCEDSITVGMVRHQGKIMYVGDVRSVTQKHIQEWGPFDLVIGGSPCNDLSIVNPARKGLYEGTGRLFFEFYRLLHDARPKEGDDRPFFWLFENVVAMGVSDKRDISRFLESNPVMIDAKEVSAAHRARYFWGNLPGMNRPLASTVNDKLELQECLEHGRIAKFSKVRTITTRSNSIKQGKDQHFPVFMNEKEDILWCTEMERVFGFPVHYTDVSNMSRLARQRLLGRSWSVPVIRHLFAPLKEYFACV", "test": "Multiphoton laser imaging, DNMT3a antibody staining", "assay_type": "cell-based", "settings": "PC-3 cells, 5 μM (data not shown)", "protocol": "Multiphoton laser imaging. After incubating slides with a fibronectin/cortactin solution for 30 minutes, PC-3 cells were plated onto the slides and incubated overnight. The cells were then treated with a 5 μM solution of compound 6a or DMSO control and incubated for 1-6 hour before washing with PBS. The slides were fixed with a 4% formaldehyde solution, washed with PBS then treated with propidium iodide (nuclear localization) and DNMT3a or DNMT3b. The compound was excited at 725 nm with a multiphoton laser and imaged with a 500-550 nm filter.\nThe dansyl moiety present in compound 6a allows it to visibly fluoresce at 552 nm when excited at 370 nm (FIG. 4A). After treating PC-3 cells with compound 6a, a multiphoton laser was used to excite the compound, and its emission from within the cells was observed by confocal microscopy (FIG. 4B-D). […] To further confirm the hypothesis that compound 6a interaction with DNMT is a crucial factor in the ultimate up-regulation of RASSF1A, the cell samples were stained with antibodies for the DNMT isoforms known to shuttle between the nucleus and the cytoplasm, DNMT3a and DNMT3b (Kim et al., EMBO J, 2002, 21: 4183-4195; Majumber et al., JBC, 2002, 277: 16048-16058). […] Thus, cytoplasmic sequestering of DNMT3b is implied as a mode of action for compound 6a."}, "[1]": {"tested_on": "human prostate tumor xenografts (PC-3)", "test": "PC-3 human prostate xenograft study", "assay_type": "in vivo, mouse", "settings": "athymic Balb/c nude mice, 10 mg/kg IP every other day, over 25 days", "protocol": "Male athymic Balb/c nude mice were injected with PC-3 cells and the resulting tumors allowed to grow for a week before dosing IP once a day every other day with 10 mg/kg compound 6a or DMSO control in 1:1 PEG/PBS. Data are presented as the mean±SEM (n=4).\nCell Culture for Xenograft. PC-3 cell line (ATCC, Manassas, Va.) was cultured in RPMI-1640 with L-glutamine (Mediatech Inc., Herdon, Va.) containing 5% fetal bovine serum (FBS), 2.5 mM L-glutamine at 37° C. with 5% CO2.\nXenograft Study. Male athymic Balb/c nude mice (18-22 g) were injected with 3×106 (0.3 mL) of the human prostate cancer cells (PC-3). The human prostate cancer cells were injected in the subcutaneous tissue of the right axillary region of the mice. One week after the injection, the mice were randomly sorted into two groups with four mice per group. A stock solution of compound 6a was obtained by dissolving 1 mg of compound in 1 μl DMSO. The stock was added to polyethylene glycol 400 (PEG) (Hampton) and PBS in a 1:1 ratio. The test concentrations were obtained by diluting with PEG/PBS. The tumor-bearing mice received an intraperitoneal injection (IP) with either 10 mg/kg of 6a or vehicle control once every other day for 4 weeks. At the same time, the tumor size of each mouse was measured by caliper and calculated by the formula: Length×width×height/2. […]"}}, "data": [{"smiles": "COc1ccc2c(c1)[nH]c1c(C)c(OS(=O)(=O)c3cccc4c(N(C)C)cccc34)ccc12", "note": "[Compound 6a, 7-Methoxy-1-methyl-9H-carbazol-2-yl 5-(dimethylamino)naphthalene-1-sulfonate]", "values": [{"measurement": "cytotoxicity compared to mahanine", "setting": "PC3 cells", "result": "less cytotoxic than mahanine"}, {"measurement": "GI50", "setting": "PC3 cells; Homo sapiens, PC-3, concentration for 50% growth inhibition in PC3 cells, 24 hours of treatment, mean ± SEM of three observations, read-out: GI50", "result": "1500 ± 110", "unit": "nM"}, {"measurement": "increase in activity compared to mahanine in inhibition of growth of prostate cancer cells", "setting": "PC3 cells; refers to Table 1", "result": 5, "unit": "fold"}, {"measurement": "DNA synthetic ability (BrdU labeling)", "setting": "PC-3 cells", "result": "decrease in DNA synthetic ability"}, {"measurement": "DNMT3a localization", "setting": "DNMT3a", "result": "No corresponding effect was seen with DNMT3a"}, {"measurement": "reduction of tumor volume compared to control", "setting": "[1]", "result": "roughly 40%"}]}]}
